The assay concerns DHL10 Bax/Bak-deficient cells, cytotoxicity, MTS absorbance. In words: DHL10 Bax/Bak-null cell killing – MTS absorbance, EC50, counter-screen for MCL1-BIM inhibitor project, late-stage follow-up (AID 493058). (The purpose of a counterscreen is to sort out artefacts and off-target activity.)

From PubChem BioAssay AID493058 (The Scripps Research Institute Molecular Screening Center, 2011) come the findings set out here.

The source made the active and inactive calls.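 The calls were made as follows: active = EC50 of 10 µM or lower; inactive = EC50 above 10 µM.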 A value given as a limit tells only on which side of the number the result lay.

For orientation: EC50 means the concentration that produces a half-maximal response.

On to `O=C(Nc1ccccn1)c1cc(-c2ccco2)nc2ccc(Br)cc12`, for which the EC50 is 10 µM.
On to `COc1ccccc1NC(=O)c1cc(-c2ccc(C)o2)nc2ccccc12`, for which the EC50 was > 25 µM (inactive).
The result for `Cc1ccc(-c2cc(C(=O)NCCCn3ccnc3)c3cc(Br)ccc3n2)o1` reads > 25 µM (inactive); that for `O=C(Nc1nccs1)c1cc(-c2ccco2)nc2ccccc12`, > 25 µM (inactive); that for `CCOC(=O)C1CCCN(C(=O)c2cc(-c3ccco3)nc3ccccc23)C1` (centres undefined), > 25 µM (inactive).
The result for `COc1cccc(NC(=O)c2cc(-c3ccc(C)o3)nc3ccccc23)c1` reads > 25 µM (inactive); that for `O=C(Nc1cccc(F)c1)c1cc(-c2ccco2)nc2ccccc12`, > 25 µM (inactive).
The result for `Cc1ccc(-c2cc(C(=O)N3CCN(c4ccccc4O)CC3)c3ccccc3n2)o1` reads > 25 µM (inactive); that for `COc1ccc(NC(=O)c2cc(-c3ccc(C)o3)nc3ccccc23)c(OC)c1`, > 25 µM (inactive).
On to `CN(C)C(CNC(=O)c1cc(-c2ccco2)nc2ccccc12)c1ccccc1` (centres undefined), for which the EC50 is > 25 µM (inactive).
In the case of `O=C(Nc1ccc(F)cc1F)c1cc(-c2ccco2)nc2ccccc12` it was > 25 µM (inactive).
Turning to `Cc1ccc(-c2cc(C(=O)Nc3nccs3)c3ccccc3n2)o1`, the EC50 was > 25 µM (inactive).
`COc1ccc(NC(=O)c2cc(-c3ccc(C)o3)nc3ccccc23)cc1`: the EC50 is > 25 µM (inactive).
In the case of `O=C(c1cc(-c2ccco2)nc2ccccc12)N(Cc1nnc(-c2ccc(Cl)cc2)o1)C1CC1` it was > 25 µM (inactive); in that of `COc1ccc(Cc2nnc(NC(=O)Cc3cccs3)s2)cc1OC`, > 25 µM (inactive); in that of `COc1ccc(Cc2nnc(NC(=O)Cc3c[nH]c4ccccc34)s2)cc1OC`, > 25 µM (inactive).
The result for `COc1ccc(Cc2nnc(NC(=O)Cc3ccc(-c4ccccc4)cc3)s2)cc1OC` reads > 25 µM (inactive).
In the case of `COc1ccc(Cc2nnc(NC(=O)c3cc(-c4ccco4)nc4ccccc34)s2)cc1OC` it was > 25 µM (inactive).
With `COc1ccc(CC(=O)Nc2nnc(Cc3ccc(OC)c(OC)c3)s2)cc1`, the EC50 was > 25 µM (inactive).
In the case of `CCCCN(C(=O)c1cc(-c2ccco2)nc2ccccc12)c1c(N)n(CCC)c(=O)[nH]c1=O` it was > 25 µM (inactive); in that of `Cc1ccnc(NC(=O)c2cc(-c3ccc(C)o3)nc3ccccc23)c1`, > 25 µM (inactive).
For `CC(C)CCNC(=O)c1cc(-c2ccco2)nc2ccccc12`, the EC50 is > 25 µM (inactive).
The result for `Cc1ccc(S(=O)(=O)N(C)C)cc1NC(=O)c1cc(-c2ccco2)nc2ccccc12` reads > 25 µM (inactive).
Consider `COCCCN(C(=O)c1cc(-c2ccco2)nc2ccccc12)c1c(N)n(Cc2ccccc2)c(=O)[nH]c1=O`, for which the EC50 was > 25 µM (inactive).
In the case of `CCc1nnc(NC(=O)c2cc(-c3ccco3)nc3ccccc23)s1` it was > 25 µM (inactive); in that of `COc1ccc(NC(=O)c2cc(-c3ccc(C)o3)nc3ccccc23)cc1OC`, > 25 µM (inactive).
The result for `CN(CC(=O)Nc1cccc(F)c1)C(=O)c1cc(-c2ccco2)nc2ccccc12` reads > 25 µM (inactive).
In the case of `Cc1csc(NC(=O)c2cc(-c3ccco3)nc3ccccc23)n1` it was > 25 µM (inactive).
Regarding `CCCCn1c(N)c(N(CC(C)C)C(=O)c2cc(-c3ccco3)nc3ccccc23)c(=O)[nH]c1=O`, the EC50 was > 25 µM (inactive).
The result for `O=C(Nc1cccc(S(=O)(=O)NC2=NCCCCC2)c1)c1cc(-c2ccco2)nc2ccccc12` reads > 25 µM (inactive).
Turning to `Cc1ccc(NC(=O)c2cc(-c3ccco3)nc3ccccc23)cc1S(=O)(=O)N1CCOCC1`, the EC50 is > 25 µM (inactive).
With `COc1ccc(Cc2nnc(CC(=O)Nc3cccs3)s2)cc1`, the EC50 was > 25 µM (inactive).
In the case of `Cc1ccc(-c2cc(C(=O)Nc3ccccc3C(N)=O)c3ccccc3n2)o1` it was > 25 µM (inactive).
In the case of `COc1ccc(Cc2nnc(NC(=O)Cc3sc(=S)[nH]c3C)s2)cc1OC`, the EC50 is > 25 µM (inactive).
In the case of `CCN(CC)CCNC(=O)c1cc(-c2ccco2)nc2ccccc12` it was > 25 µM (inactive); in that of `COc1ccc(NC(=O)c2cc(-c3ccco3)nc3ccccc23)cn1`, > 25 µM (inactive).
In the case of `CCN(CC)C(=O)COc1ccc2c(-c3ccccc3)cc(=O)oc2c1` it was > 25 µM (inactive); in that of `CCOC(=O)c1cc(-c2ccco2)nc2c1c(C)nn2-c1ccccc1`, > 25 µM (inactive); in that of `Cc1ccc(-c2cc(C(=O)NCCN3CCOCC3)c3ccccc3n2)o1`, > 25 µM (inactive).
The result for `CCCCN(C(=O)c1cc(-c2ccco2)nc2ccccc12)c1c(N)n(CCCC)c(=O)[nH]c1=O` reads > 25 µM (inactive).
As to `Cc1ccc(-c2cc(C(=O)N3CCCC(C(F)(F)F)C3)c3ccccc3n2)o1` (centres undefined), the EC50 was > 25 µM (inactive).
In the case of `COc1ccc(NC(=O)c2cc(-c3ccco3)nc3ccccc23)cc1S(=O)(=O)N1CCOCC1` it was > 25 µM (inactive).
In the case of `COc1ccc(Cc2nnc(NC(=O)Cc3csc4ccccc34)s2)cc1OC` it was > 25 µM (inactive); in that of `COC(=O)C1CCN(C(=O)c2cc(-c3ccco3)nc3ccccc23)CC1`, > 25 µM (inactive).
On to `O=C(NCCCN1CCOCC1)c1cc(-c2ccco2)nc2ccccc12`, for which the EC50 was > 25 µM (inactive).
Take `Cc1cccc(NC(=O)c2cc(-c3ccco3)nc3ccc(Br)cc23)n1`: the EC50 is 10 µM.
The result for `Cc1ccc(-c2cc(C(=O)N3CCN(c4ccc(F)cc4)CC3)c3ccccc3n2)o1` reads > 25 µM (inactive); that for `COc1ccc(Cc2nnc(NC(=O)Cc3ccccc3C)s2)cc1OC`, > 25 µM (inactive); that for `COc1ccc(Cc2nnc(NC(=O)Cc3ccccn3)s2)cc1OC`, > 25 µM (inactive).
For `CCC(=O)Nc1nnc(Cc2ccccc2)s1`, the EC50 is > 25 µM (inactive).
`CCN1CCN(C(=O)c2cc(-c3ccco3)nc3ccccc23)CC1`: the EC50 was > 25 µM (inactive).
The result for `Cc1ccc(-c2cc(C(=O)Nc3ccccc3C)c3ccccc3n2)o1` reads > 25 µM (inactive); that for `COc1cccc(NC(=O)c2cc(-c3ccco3)nc3ccccc23)c1`, > 25 µM (inactive).
The result for `COc1ccc(Cc2nnc(NC(=O)Cc3ccc(Oc4ccccc4)cc3)s2)cc1OC` reads > 25 µM (inactive); that for `O=C(NC1CC1)c1cc(-c2ccco2)nc2ccccc12`, > 25 µM (inactive); that for `COc1cccc(NC(=O)CN(C)C(=O)c2cc(-c3ccco3)nc3ccccc23)c1`, > 25 µM (inactive).
As for `COCCN(C(=O)c1cc(-c2ccco2)nc2ccccc12)c1c(N)n(Cc2ccccc2)c(=O)[nH]c1=O`, the EC50 was > 25 µM (inactive).
The result for `Cc1nnc(NC(=O)c2cc(-c3ccco3)nc3ccccc23)s1` reads > 25 µM (inactive); that for `COc1ccc(Cc2nnc(NC(=O)Cc3cccnc3)s2)cc1OC`, > 25 µM (inactive); that for `CCCN(C(=O)c1cc(-c2ccco2)nc2ccccc12)c1c(N)n(Cc2ccccc2)c(=O)[nH]c1=O`, > 25 µM (inactive).
In the case of `CCCC(=O)Nc1nnc(Cc2ccccc2)s1` it was > 25 µM (inactive); in that of `Cc1ccc(-c2cc(C(=O)N3CCN(c4ncccn4)CC3)c3cc(Br)ccc3n2)o1`, > 25 µM (inactive); in that of `COc1ccc(Cc2nnc(NC(=O)Cc3ccc(N(C)C)cc3)s2)cc1OC`, > 25 µM (inactive).
In the case of `COc1ccc(CCNC(=O)c2cc(-c3ccco3)nc3ccccc23)cc1` it was > 25 µM (inactive); in that of `COc1ccc(NC(=O)CN(C)C(=O)c2cc(-c3ccc(C)o3)nc3ccccc23)cc1`, > 25 µM (inactive); in that of `COc1ccc(Cc2nnc(NC(=O)Cc3ccc4ccccc4c3)s2)cc1OC`, > 25 µM (inactive).
Consider `Cc1cccc(NC(=O)c2cc(-c3ccc(C)o3)nc3ccccc23)n1`, for which the EC50 is > 25 µM (inactive).
In the case of `Cc1ccc(-c2cc(C(=O)Nc3cccnc3)c3ccccc3n2)o1` it was > 25 µM (inactive).
The result for `COc1ccc(Cc2nnc(NC(=O)c3cc(-c4ccc(C)o4)nc4ccccc34)s2)cc1OC` reads 25 µM (inactive); that for `O=C(c1cc(-c2ccco2)nc2ccccc12)N1CCN(Cc2ccccc2)CC1`, > 25 µM (inactive); that for `Cc1ccc(-c2cc(C(=O)N3CCOCC3)c3ccccc3n2)o1`, > 25 µM (inactive).
The result for `CCCCCCNC(=O)c1cc(-c2ccco2)nc2ccccc12` reads > 25 µM (inactive).
Take `Cc1ccnc(NC(=O)c2cc(-c3ccco3)nc3ccc(Br)cc23)c1`: the EC50 was > 25 µM (inactive).
In the case of `CCN(CC)C(=O)COc1ccc2c(-c3ccc(OC)cc3)cc(=O)oc2c1C` it was > 25 µM (inactive); in that of `CCCCn1c(N)c(N(CCC(C)C)C(=O)c2cc(-c3ccco3)nc3ccccc23)c(=O)[nH]c1=O`, > 25 µM (inactive).
On to `O=C(NCC1CCCO1)c1cc(-c2ccco2)nc2ccccc12` (centres undefined), for which the EC50 is > 25 µM (inactive).
In the case of `COc1ccc(Cc2nnc(NC(=O)Cc3ccncc3)s2)cc1OC` it was > 25 µM (inactive); in that of `O=C(Nc1nncs1)c1cc(-c2ccco2)nc2ccccc12`, > 25 µM (inactive); in that of `COc1ccc(Cc2nnc(NC(=O)Cc3cccs3)s2)cc1`, > 25 µM (inactive).
The result for `CCN(CC)C(=O)COc1ccc2c(-c3ccc(OC)cc3)cc(=O)oc2c1` reads > 25 µM (inactive).
The result for `Cc1ccc(-c2cc(C(=O)Nc3ccccn3)c3ccccc3n2)o1` reads > 25 µM (inactive); that for `COc1ccc(NC(=O)c2cc(-c3ccco3)nc3ccccc23)cc1`, > 25 µM (inactive); that for `COc1ccc(-c2cc(=O)oc3cc(OCC(=O)N4CC4)ccc23)cc1`, > 25 µM (inactive).
Turning to `O=C(Nc1ccccc1N1CCOCC1)c1cc(-c2ccco2)nc2ccccc12`, the EC50 is > 25 µM (inactive).
